Entries after “also recorded” stand apart in the source; their conditions may differ.
How the values were obtained:
[1] = test system: participants with primary mitochondrial myopathy (PMM); test: Safety and tolerability (adverse events), MMPOWER-3; type: in vivo, human
Experimental: Safety and tolerability of elamipretide at a dose of 40 mg/d SC were assessed through recording of adverse events (AEs), ascertained through self-report, vital signs, physical examination, ECGs, and clinical laboratory evaluations. Adverse events were assessed for severity and relationship to study medication throughout the 24-week study. Safety measures were assessed during screening, baseline and weeks 4, 12, and 24.
(§1) Efficacy was assessed in the intention-to-treat (ITT) population, defined as all participants who received at least 1 dose of investigational medication, and the per-protocol (PP) population, which included all ITT participants without defined protocol violations/deviations identified per blinded data review before database lock. These protocol violations/deviations included not meeting inclusion/exclusion criteria or having a selected major protocol deviation deemed to potentially affect efficacy findings; not completing the study; not receiving investigational treatment within 2 days before the week 24 visit; having <80% compliance to investigational product; and not completing the study. Safety was assessed in the safety population, defined as all participants who received at least 1 dose of investigational medication.

[2] = test system: participants with primary mitochondrial myopathy (PMM); test: Primary Mitochondrial Myopathy Symptom Assessment (PMMSA) total fatigue score, MMPOWER-3; type: in vivo, human
Experimental: (§2) MMPOWER-3 was a 24-week , randomized, double-blind, parallel-group, placebo-controlled clinical trial for adults with PMM conducted at 27 clinical research centers in 7 countries (Canada, Denmark, England, Germany, Hungary, Italy, and the United States).
(§3) After screening (7–28 days), eligible participants were randomized in a 1:1 ratio to receive either 24-weeks of once-daily SC dosing of 40 mg of elamipretide or placebo. Study drug or placebo was self-administered subcutaneously by trained participants or their caregivers, at rotating sites around 4 quadrants of the abdomen or the thighs. Treatment began at the baseline visit with assessments at weeks 4, 12, and 24.
(§4) Coprimary endpoints evaluated the effect of elamipretide for 24 weeks including the distance walked (in meters) on the 6MWT and the total fatigue score on the Primary Mitochondrial Myopathy Symptom Assessment (PMMSA), previously described in detail.[31] The full PMMSA assesses the severity of 10 of the most common symptoms of PMM using the following 4-point scale (not at all[1] to severe; described later). PMMSA total fatigue score (TFS) focuses on myopathic symptoms most commonly associated with PMM (severity of tiredness and muscle weakness at rest and during activities, as described by participants).
The PMMSA was performed during screening, baseline, and daily throughout the 24-week study period. Other efficacy endpoints were performed at screening, baseline, and at weeks 4, 12, and 24 of randomized treatment.
as §1
(§5) Primary and secondary efficacy outcomes were assessed as the change from baseline to each on-treatment time point with the primary time point being end of treatment (week 24). Analyses of continuous endpoints were conducted using a mixed-model repeated measures approach, with fixed effects for treatment, visit, the treatment-by-visit interaction, and participant as a random effect. The baseline value and a baseline-by-visit interaction for the endpoint were included as covariates. A family-wise alpha level of 0.05 was maintained for the primary endpoints, using Hochberg procedure at the primary time point of 24 weeks. […] If not, the endpoint with the smaller p value of the 2 was considered statistically significant if the p value was ≤0.025 (2-sided ).
(§6) Given the extensive genetic heterogeneity of the study population, an exploratory analysis of genetic subgroups by genomic alteration (mtDNA and nDNA) was performed using the same methods as described for the primary efficacy endpoints earlier (ITT population using similar mixed-model repeated measure [MMRM] models).

[3] = test system: participants with primary mitochondrial myopathy (PMM); test: 6-minute walk test (6MWT), MMPOWER-3 phase 3 trial; type: in vivo, human
Experimental: as §2, §3, §4, §1, §5, §6
Because of a potential data entry error, which was later identified in post hoc data analysis, 3 participants were misclassified in the clinical study report as having a pathogenic mtDNA variant. […] Accordingly, these participants were moved from the mtDNA group into the nDNA cohort for the included genetic alteration analyses. 6MWT for 1 participant at week 24 was deemed unusable because the participant inadvertently received walking assistance and was therefore not included in the 6MWT analyses. Study protocol and statistical analysis plan were published on ClinicalTrials.gov updated on January 24th 2022 (NCT03323749).[32]

[4] = test system: participants with primary mitochondrial myopathy (PMM); test: MMPOWER-3 overall outcome on primary and secondary efficacy endpoints; type: in vivo, human; details: 40 mg/d SC, 24 weeks, vs placebo
Description: as §4, with “participants). […]” for “participants).”
Other secondary endpoints included the patient global impression (PGI) and clinician global impression (CGI) of PMM symptoms. PGI and CGI assess patient and clinician overall assessment of the severity of patients' symptoms related to PMM on a 5-point scaled question scored 0 to 4 (0 = none, 1 = mild, 2 = moderate, 3 = severe, and 4 = very Severe) and changes to their symptoms on a 7-point scale scored −3 to 3 (−3 = very much worse, −2 = moderately worse, −1 = a little worse, 0 = no change, 1 = a little better, 2 = moderately better, and 3 = very much better).
Primary and secondary efficacy outcomes were assessed as the change from baseline to each on-treatment time point with the primary time point being end of treatment (week 24). […]

[5] = Population pharmacokinetic and exposure-response analysis (NONMEM), MMPOWER-3; type: in vivo, human
Experimental: The PK population included 106 participants randomized and treated with elamipretide, with at least 1 PK sample taken during their participation. PK modeling for elamipretide and its metabolites, M1 and M2, were performed using NONMEM computer software. Covariates, such as age, genotype, weight, height, lean body mass, body mass index, liver function tests, serum creatinine, and renal function (as described by estimated glomerular filtration rate [eGFR]) were analyzed. The exposure-response analysis examined response based on the 6MWT as a function of steady-state exposure to elamipretide and its metabolites.

[6] = cited from earlier work
Description: Elamipretide is an investigational mitochondrial-targeting agent in development for treating patients with a variety of mitochondrial diseases.[10][-][13] Elamipretide is a water-soluble, aromatic, cationic, mitochondria-targeting tetrapeptide that readily penetrates and transiently localizes to the inner mitochondrial membrane where it associates with cardiolipin to improve membrane stability and restore supercomplex formation, thereby enhancing adenosine triphosphate synthesis in several organs including the heart, kidney, neurons, and skeletal muscle, and reduce reactive oxygen species (ROS ...

[7] = 40 mg/d SC, 24 weeks, listed as Elamipretide
[8] = AEs reported by ≥ 5% of participants in either group, n = 109, 40 mg/d SC, 24 weeks
[9] = safety population n = 109, 40 mg/d SC, 24 weeks

Substance: elamipretide
- AE with an outcome of death or hospitalization ([1]; 40 mg/d SC, 24 weeks): No participants
- Severity (intensity) of most adverse events ([1]; 40 mg/d SC, 24 weeks): mild or moderate
- Tolerability of subcutaneous elamipretide ([1]; 40 mg/d SC, 24 weeks): generally well tolerated
- Severity (intensity) of most adverse events [1, 7]: mild to moderate
- Tolerability of subcutaneous elamipretide [1, 7]: well-tolerated
- Diarrhea [1, 8]: 3 (2.8) n (%)
- Dizziness [1, 8]: 6 (5.5) n (%)
- Eosinophil count increased [1, 8]: 7 (6.4) n (%)
- Fall [1, 8]: 6 (5.5) n (%)
- Headache [1, 8]: 8 (7.3) n (%)
- Injection site bruising [1, 8]: 9 (8.3) n (%)
- Injection site erythema [1, 8]: 94 (86.2) n (%)
- Injection site hematoma [1, 8]: 0 n (%)
- Injection site hemorrhage [1, 8]: 7 (6.4) n (%)
- Injection site induration [1, 8]: 31 (28.4) n (%)
- Injection site mass [1, 8]: 9 (8.3) n (%)
- Injection site nodule [1, 8]: 11 (10.1) n (%)
- Injection site pain [1, 8]: 43 (39.4) n (%)
- Injection site pruritus [1, 8]: 82 (75.2) n (%)
- Injection site swelling [1, 8]: 42 (38.5) n (%)
- Injection site urticaria [1, 8]: 14 (12.8) n (%)
- Nasopharyngitis [1, 8]: 8 (7.3) n (%)
- Nausea [1, 8]: 5 (4.6) n (%)
- Upper respiratory tract infection [1, 8]: 7 (6.4) n (%)
- AEs reported as treatment-related AEs ([1]; elamipretide group, 40 mg/d SC, 24 weeks): 97.2%
- Percentage of participants with serious adverse events (SAEs) ([1]; n = 5/109, not deemed to be treatment related): 4.6%
- Incidence of AEs leading to discontinuation ([1]; n = 8/109): 7.3%
- Percentage of participants reporting AEs during the treatment period ([1]; n = 107/109, 40 mg/d SC, 24 weeks): 98.2%
- Any AE [1, 9]: 107 (98.2) n (%)
- Any AE leading to treatment discontinuation [1, 9]: 8 (7.3) n (%)
- Any AE leading to treatment interruption [1, 9]: 13 (11.9) n (%)
- Any SAE [1, 9]: 5 (4.6) n (%)
- Any treatment-related AE [1, 9]: 106 (97.2) n (%)
- Any treatment-related SAE [1, 9]: 0 n (%)
- Death [1, 9]: 0 n (%)
- Difference between elamipretide and placebo in LS mean change from baseline to week 24 on PMMSA total fatigue score ([2]; ITT population, 40 mg/d SC, 24 weeks, 95% CI −0.69 to 0.54, p = 0.81): −0.07
- LS mean (SE) of change from baseline to week 24 on the PMMSA total fatigue score ([2]; ITT population, 40 mg/d SC, 24 weeks, MMRM, SEM): −1.13 (±0.22)
- Difference between elamipretide and placebo in change from baseline to week 24 on PMMSA total fatigue score, per-protocol analysis ([2]; PP population, 40 mg/d SC, 24 weeks, 95% CI −0.54 to 0.72, p = 0.78): 0.09
- LS mean (SE) of change from baseline at week 24 on PMMSA TFS, mtDNA alteration subgroup ([2]; participants with mtDNA alteration, 40 mg/d SC, 24 weeks, SEM): −1.3 (±0.2424)
- Between-group difference in change from baseline at week 24 on PMMSA TFS, mtDNA alteration subgroup ([2]; participants with mtDNA alteration, 95% CI −0.9 to 0.5, p = 0.55): −0.21
- LS mean (SE) of change from baseline at week 24 on PMMSA TFS, nDNA alteration subgroup ([2]; participants with nDNA alteration (post hoc analysis), 40 mg/d SC, 24 weeks, SEM): −0.45 (±0.25)
- Between-group difference in change from baseline at week 24 on PMMSA TFS, nDNA alteration subgroup ([2]; participants with nDNA alteration (post hoc), p = 0.93): 0.03
- Difference between elamipretide and placebo in LS mean change from baseline in 6MWT distance at week 24 ([3]; ITT population, 40 mg/d SC, 24 weeks, 95% CI −18.7 to 12.3, p = 0.69): −3.2 meters
- Least squares mean (SE) of change from baseline in distance walked on 6MWT at week 24 ([3]; ITT population, elamipretide 40 mg/d SC once daily, 24 weeks, MMRM, SEM): 14.1 (±5.7) meters
- Difference between elamipretide and placebo in change from baseline in 6MWT distance at week 24, per-protocol analysis ([3]; PP population, 40 mg/d SC, 24 weeks, 95% CI −16.9 to 12.5, p = 0.77): −2.2 meters
- LS mean (SE) of change from baseline in 6MWT distance at week 24, mtDNA alteration subgroup ([3]; participants with mtDNA alteration (ITT), elamipretide n = 74, 40 mg/d SC, 24 weeks, SEM): 14.0 (±6.1) meters
- Between-group difference in change from baseline in 6MWT distance at week 24, mtDNA alteration subgroup ([3]; participants with mtDNA alteration, favoring placebo, 95% CI −28.1 to 6.1, p = 0.21): −11.0 meters
- LS mean (SE) change from baseline in 6MWT distance at week 24, nDNA alteration subgroup ([3]; participants with nDNA alteration (post hoc analysis), elamipretide n = 29, 40 mg/d SC, 24 weeks, SEM): 25.5 (±8.0) meters
- Between-group difference in change from baseline in 6MWT distance at week 24, nDNA alteration subgroup ([3]; participants with nDNA alteration (post hoc), favoring elamipretide, 95% CI 3.1–47.3, p = 0.03): 25.2 meters
- Overall outcome on efficacy endpoints (6MWT, PMMSA TFS, secondary endpoints) versus placebo [4]: did not improve outcomes in the 6MWT and PMMSA TFS; also recorded: did not meet either primary or secondary endpoints; also recorded: did not demonstrate statistically significant changes on the primary endpoints
- Covariate influence on systemic or absorption PK parameters (population PK model) ([5]; PK population 106 participants, NONMEM, systemic parameters scaled allometrically): No covariates influenced the systemic or absorption parameters
- Exposure-response: 6MWT change and fractional change at week 24 vs day 1 as a function of elamipretide steady state area under the curve ([5]; participants with an nDNA alteration, p = 0.0262 and p = 0.0345, respectively): increase; also recorded: statistically significant correlation
- Solubility in water (description) [6]: water-soluble

Reference: article PMC10382259, “Efficacy and Safety of Elamipretide in Individuals With Primary Mitochondrial Myopathy” (Neurology, 2023)
